Test results from ChEMBL document CHEMBL5357059, “Arenarialins A-F, Anti-inflammatory Meroterpenoids with Rearranged Skeletons from the Marine Sponge Dysidea arenaria” (J Nat Prod, 2024).
Calls of active or inactive are those of the source. The calls are words filed in the database; no cut-off is given here.

Key:
RAW264.7 [1] = test: Antiinflammatory activity in LPS-induced mouse RAW264.7 cells assessed as inhibition of IL-6 production pretreated for 1 hr followed by LPS stimulation and measured after 3 hrs by ELISA; assay type: functional, cell-based; details: dose 2.5-20 µM, time 4.0 hrs
RAW264.7 [2] = test: Cytotoxicity against mouse RAW264.7 cells assessed as reduction in cell viability at 2.5 to 20 uM incubated for 24 hrs by CCK-8 assay; assay type: toxicity, cell-based; details: raw264.7, 24 h, dose 2.5-20 µM
RAW264.7 [3] = test: Antiinflammatory activity in LPS-induced mouse RAW264.7 cells assessed as inhibition of TNFalpha production at 5 to 20 uM pretreated for 1 hr followed by LPS stimulation and measured after 3 hrs by ELISA; assay type: functional, cell-based; details: dose 5-20 µM, time 4.0 hrs
RAW264.7 [4] = test: Effect on COX-2 protein expression in LPS-induced mouse RAW264.7 cells at 5 uM pretreated for 2 hrs followed by LPS stimulation and measured after 25 mins by Western blot analysis; assay type: functional, cell-based; details: time 145.0 min
[5] = target: Mitogen-activated protein kinase 1 and 3 (ERK2 and ERK1) (Mus musculus) (UniProt P63085+Q63844); test: Inhibition of LPS-induced ERK1/2 phosphorylation in mouse RAW264.7 cells assessed as reduction in p-ERK1/2 protein expression at 2.5 to 5 uM pretreated for 2 hrs followed by LPS stimulation and measured after 25 mins by Western blot analysis; assay type: cell-based; details: dose 2.5-5 µM, time 145.0 min
Sequence of Mitogen-activated protein kinase 1 and 3 (ERK2 and ERK1) (Mus musculus) (P63085 whole entry, looked up): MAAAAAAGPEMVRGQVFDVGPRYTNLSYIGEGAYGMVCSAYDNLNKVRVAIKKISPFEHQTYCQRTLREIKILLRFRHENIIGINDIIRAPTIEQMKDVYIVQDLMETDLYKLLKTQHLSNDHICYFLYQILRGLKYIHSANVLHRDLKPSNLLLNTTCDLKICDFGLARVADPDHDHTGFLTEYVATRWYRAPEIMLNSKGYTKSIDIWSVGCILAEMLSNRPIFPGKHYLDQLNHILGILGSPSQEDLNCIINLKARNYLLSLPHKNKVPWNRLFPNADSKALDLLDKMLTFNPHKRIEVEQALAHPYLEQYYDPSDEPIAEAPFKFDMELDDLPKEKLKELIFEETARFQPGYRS
Sequence of Mitogen-activated protein kinase 1 and 3 (ERK2 and ERK1) (Mus musculus) (Q63844 whole entry, looked up): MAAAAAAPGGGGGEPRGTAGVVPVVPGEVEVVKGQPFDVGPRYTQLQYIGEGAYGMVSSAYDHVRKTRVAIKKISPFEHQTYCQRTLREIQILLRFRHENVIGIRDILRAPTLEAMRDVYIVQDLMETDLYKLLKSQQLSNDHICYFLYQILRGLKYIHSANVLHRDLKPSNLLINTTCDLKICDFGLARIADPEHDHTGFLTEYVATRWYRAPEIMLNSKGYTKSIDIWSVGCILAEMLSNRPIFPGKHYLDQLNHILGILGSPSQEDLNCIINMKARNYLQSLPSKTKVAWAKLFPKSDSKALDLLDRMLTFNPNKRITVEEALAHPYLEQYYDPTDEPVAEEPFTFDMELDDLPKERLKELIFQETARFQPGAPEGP

[6] = target: Transcription factor p65 (Mus musculus) (UniProt Q04207); test: Inhibition of NFkappaB p65 phosphorylation at Ser536 residue in LPS-induced mouse RAW264.7 cells assessed as downregulation of p-NFkappaB p65 protein expression at 5 uM pretreated for 2 hrs followed by LPS stimulation and measured after 25 mins by Western blot analysis; assay type: cell-based; details: time 145.0 min
Sequence of Transcription factor p65 (Mus musculus) (Q04207 whole entry): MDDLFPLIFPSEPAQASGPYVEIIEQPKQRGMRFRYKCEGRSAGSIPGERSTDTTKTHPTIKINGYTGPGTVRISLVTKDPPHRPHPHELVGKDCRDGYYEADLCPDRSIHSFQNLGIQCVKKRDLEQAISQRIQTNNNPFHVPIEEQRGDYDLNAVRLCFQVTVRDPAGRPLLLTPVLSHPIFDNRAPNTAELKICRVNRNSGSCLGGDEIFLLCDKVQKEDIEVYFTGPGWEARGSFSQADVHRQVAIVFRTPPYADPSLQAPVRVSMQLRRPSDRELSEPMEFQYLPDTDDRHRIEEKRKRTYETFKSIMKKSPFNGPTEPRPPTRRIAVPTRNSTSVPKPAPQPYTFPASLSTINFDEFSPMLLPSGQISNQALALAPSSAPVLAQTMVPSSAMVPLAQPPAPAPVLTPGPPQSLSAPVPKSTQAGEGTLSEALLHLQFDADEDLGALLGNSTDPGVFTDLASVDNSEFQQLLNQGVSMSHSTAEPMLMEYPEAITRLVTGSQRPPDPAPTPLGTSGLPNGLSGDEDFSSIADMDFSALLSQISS

[7] = target: c-Jun N-terminal kinase (Mus musculus) (UniProt Q91Y86+Q9WTU6+Q61831); test: Inhibition of LPS-induced JNK phosphorylation in mouse RAW264.7 cells assessed as reduction in p-JNK protein expression at 2.5 to 5 uM pretreated for 2 hrs followed by LPS stimulation and measured after 25 mins by Western blot analysis; assay type: cell-based; details: dose 2.5-5 µM, time 145.0 min
Sequence of c-Jun N-terminal kinase (Mus musculus) (Q61831 whole entry, looked up): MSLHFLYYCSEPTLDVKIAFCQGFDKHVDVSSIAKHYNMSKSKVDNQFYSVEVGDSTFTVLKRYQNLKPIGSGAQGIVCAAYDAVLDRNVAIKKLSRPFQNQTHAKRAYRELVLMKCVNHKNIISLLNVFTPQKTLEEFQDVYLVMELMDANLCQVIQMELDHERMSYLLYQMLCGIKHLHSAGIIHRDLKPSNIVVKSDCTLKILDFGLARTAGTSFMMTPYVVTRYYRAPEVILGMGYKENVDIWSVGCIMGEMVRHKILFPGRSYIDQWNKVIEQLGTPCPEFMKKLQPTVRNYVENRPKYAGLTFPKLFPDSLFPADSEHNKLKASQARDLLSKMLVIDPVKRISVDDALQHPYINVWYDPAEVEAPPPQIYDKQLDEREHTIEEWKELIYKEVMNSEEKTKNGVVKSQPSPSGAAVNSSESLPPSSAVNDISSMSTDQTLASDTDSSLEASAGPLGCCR
Sequence of c-Jun N-terminal kinase (Mus musculus) (Q91Y86 whole entry, looked up): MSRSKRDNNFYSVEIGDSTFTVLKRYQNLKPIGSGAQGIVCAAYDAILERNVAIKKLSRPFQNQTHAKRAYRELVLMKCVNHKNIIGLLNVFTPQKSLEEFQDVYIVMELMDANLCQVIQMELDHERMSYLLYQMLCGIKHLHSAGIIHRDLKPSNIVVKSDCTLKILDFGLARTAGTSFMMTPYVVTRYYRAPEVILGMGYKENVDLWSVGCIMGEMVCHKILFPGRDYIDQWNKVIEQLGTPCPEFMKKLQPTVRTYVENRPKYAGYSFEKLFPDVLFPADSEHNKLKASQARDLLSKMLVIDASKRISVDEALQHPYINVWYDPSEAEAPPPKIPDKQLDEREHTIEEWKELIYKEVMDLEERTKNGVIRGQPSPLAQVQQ
Sequence of c-Jun N-terminal kinase (Mus musculus) (Q9WTU6 whole entry, looked up): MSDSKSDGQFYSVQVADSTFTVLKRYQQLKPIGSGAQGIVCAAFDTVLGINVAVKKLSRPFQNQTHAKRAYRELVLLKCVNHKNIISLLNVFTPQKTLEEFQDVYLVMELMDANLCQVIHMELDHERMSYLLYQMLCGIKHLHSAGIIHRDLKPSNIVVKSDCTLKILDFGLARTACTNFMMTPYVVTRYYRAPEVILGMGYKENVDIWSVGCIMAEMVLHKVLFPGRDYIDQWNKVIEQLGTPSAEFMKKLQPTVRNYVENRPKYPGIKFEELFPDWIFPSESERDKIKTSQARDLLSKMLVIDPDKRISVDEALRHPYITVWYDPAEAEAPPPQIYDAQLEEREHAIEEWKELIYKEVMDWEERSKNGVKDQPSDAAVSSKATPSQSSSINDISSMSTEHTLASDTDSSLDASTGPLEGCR

[8] = target: T1, NF-kappa-B inhibitor alpha (Mus musculus) (UniProt Q9Z1E3); test: Inhibition of IkappaBalpha phosphorylation at Ser32 residue in LPS-induced mouse RAW264.7 cells at 5 uM pretreated for 2 hrs followed by LPS stimulation and measured after 25 mins by Western blot analysis; assay type: cell-based; details: time 145.0 min
T1 sequence (whole entry): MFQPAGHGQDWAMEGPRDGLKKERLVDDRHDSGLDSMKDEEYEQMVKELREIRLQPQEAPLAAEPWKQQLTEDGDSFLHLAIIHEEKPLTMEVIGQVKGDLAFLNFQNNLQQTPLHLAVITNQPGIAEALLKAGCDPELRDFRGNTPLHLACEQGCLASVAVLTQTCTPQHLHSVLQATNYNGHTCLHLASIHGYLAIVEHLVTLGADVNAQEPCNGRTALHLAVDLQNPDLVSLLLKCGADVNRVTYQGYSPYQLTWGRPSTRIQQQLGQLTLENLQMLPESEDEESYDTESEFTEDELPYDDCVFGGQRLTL

RAW264.7 [9] = test: Inhibition of LPS-induced p38 phosphorylation in mouse RAW264.7 cells assessed as reduction in p-p38 protein expression at 2.5 to 5 uM pretreated for 2 hrs followed by LPS stimulation and measured after 25 mins by Western blot analysis; assay type: cell-based; details: dose 2.5-5 µM, time 145.0 min

| Structure (SMILES) | Activity (RAW264.7 [1]) | Activity (RAW264.7 [2]) | Activity (RAW264.7 [3]) | Activity (RAW264.7 [4]) | inhibition [5] | inhibition [6] | inhibition [7] | inhibition [8] | inhibition (RAW264.7 [9]) |
| --- | --- | --- | --- | --- | --- | --- | --- | --- | --- |
| C=C1[C@H](O)C[C@@H]2Oc3ccc(O)cc3C[C@]3(C)[C@@H](C)CC[C@@]1(C)[C@@H]23 | Dose-Dependent Effect | Non-Toxic |  |  |  |  |  |  |  |
| C[C@H]1CC[C@]2(C)[C@@H](C)OC(=O)C[C@]23c2c(O)ccc(O)c2C[C@]13C |  | Non-Toxic |  |  |  |  |  |  |  |
| CC1=CC(=O)[C@@H]2Oc3ccc(O)cc3C[C@]3(C)[C@@H](C)CC[C@@]1(C)[C@@H]23 | Dose-Dependent Effect | Non-Toxic | Active |  |  |  |  |  |  |
| CCOC1=CC(=O)C2=C(C1=O)[C@@H]1C[C@]3(C)C(C)=CCCC3=C(C)[C@]1(C)C2 |  | Non-Toxic | Active |  |  |  |  |  |  |
| C[C@H]1CC[C@@]2(C)[C@]34CC(=O)C[C@]2(C)Oc2ccc(O)c(c23)C[C@]14C | Dose-Dependent Effect | Non-Toxic | Active |  |  |  |  |  |  |
| C[C@@H]1CC[C@@]2(C)OC(=O)[C@H]3Oc4ccc(O)cc4C[C@]1(C)[C@@H]32 | Dose-Dependent Effect | Non-Toxic | Active | inactive | Active | Active | Active | inactive | Active |
